For 30 molecules, activity coefficient results are on record in the NIST ThermoML archive (doi:10.1021/je200822w).

A short description of this series: activity coefficient (dimensionless); of the first substance listed, at infinite dilution; xn = mol fraction of the nth substance listed. The settings on record: 101 kPa, Liquid, Chromatography, x1 = 0.

Numbers after ± are expanded uncertainties.

Regarding `COCCOC` [1,2-dimethoxyethane] + CCCC[N+]1(C)CCCC1.N#CN=C=[N-], the activity coefficient (318.15 K) turned out to be 1.19 ± 0.08; the activity coefficient (323.15 K) was 1.23 ± 0.08; the activity coefficient (333.15 K) turned out to be 1.31 ± 0.09; the activity coefficient (343.15 K) was found to be 1.39 ± 0.09; the activity coefficient (353.13 K) came to 1.46 ± 0.1.
As for `Cc1cccc(C)c1` [1,3-dimethylbenzene] + CCCC[N+]1(C)CCCC1.N#CN=C=[N-], the activity coefficient by setting is: (318.15 K) 3.46 ± 0.24; (323.15 K) 3.5 ± 0.24; (333.15 K) 3.56 ± 0.24; (343.15 K) 3.61 ± 0.25; (353.15 K) 3.67 ± 0.25.
In the same order, the values of `FC(F)(F)C(Cl)Br` (stereo not given) [1-bromo-1-chloro-2,2,2-trifluoroethane] + CCCC[N+]1(C)CCCC1.N#CN=C=[N-] are 0.568 ± 0.041, 0.606 ± 0.042, 0.694 ± 0.047, 0.776 ± 0.051 and 0.866 ± 0.055.
The corresponding values for `COC(C)(C)C` [2-methoxy-2-methylpropane] + CCCC[N+]1(C)CCCC1.N#CN=C=[N-] are 6.04 ± 0.41, 6.13 ± 0.42, 6.29 ± 0.43, 6.4 ± 0.44 and 6.53 ± 0.45.
`CC(C)=O` [acetone] + CCCC[N+]1(C)CCCC1.N#CN=C=[N-]: the activity coefficient was found to be 0.905 ± 0.057 (318.15 K); 0.917 ± 0.058 (323.15 K); 0.942 ± 0.059 (333.15 K); 0.963 ± 0.061 (343.15 K); 0.986 ± 0.062 (353.15 K).
In the same order, the values of `CC#N` [acetonitrile] + CCCC[N+]1(C)CCCC1.N#CN=C=[N-] are 0.67 ± 0.045, 0.676 ± 0.046, 0.68 ± 0.046, 0.684 ± 0.046 and 0.687 ± 0.046.
The corresponding values for `c1ccccc1` [benzene] + CCCC[N+]1(C)CCCC1.N#CN=C=[N-] are 1.41 ± 0.09, 1.42 ± 0.09, 1.46 ± 0.1, 1.49 ± 0.1 and 1.53 ± 0.1.
In the same order, the values of `CCC(C)=O` [butanone] + CCCC[N+]1(C)CCCC1.N#CN=C=[N-] are 1.26 ± 0.08, 1.27 ± 0.08, 1.32 ± 0.09, 1.33 ± 0.09 and 1.35 ± 0.09.
Take `C1CCCCC1` [cyclohexane] + CCCC[N+]1(C)CCCC1.N#CN=C=[N-]: the activity coefficient (318.15 K) was 21.1 ± 1.4; the activity coefficient (323.15 K) stood at 20.6 ± 1.4; the activity coefficient (333.15 K) was 19.5 ± 1.3; the activity coefficient (343.15 K) worked out at 18.5 ± 1.3; the activity coefficient (353.15 K) worked out at 17.7 ± 1.2.
Take `ClCCl` [dichloromethane] + CCCC[N+]1(C)CCCC1.N#CN=C=[N-]: the activity coefficient came out at 0.541 ± 0.04 (318.15 K); 0.558 ± 0.04 (323.15 K); 0.591 ± 0.042 (333.15 K); 0.623 ± 0.043 (343.15 K); 0.655 ± 0.045 (353.15 K).
The corresponding values for `CC(C)OC(C)C` [diisopropyl ether] + CCCC[N+]1(C)CCCC1.N#CN=C=[N-] are 17.9 ± 1.2, 17.9 ± 1.2, 18 ± 1.2, 17.9 ± 1.2 and 17.9 ± 1.2.
The corresponding values for `COC(=O)OC` [dimethyl carbonate] + CCCC[N+]1(C)CCCC1.N#CN=C=[N-] are 1.26 ± 0.08, 1.27 ± 0.08, 1.29 ± 0.08, 1.31 ± 0.09 and 1.33 ± 0.09.
For `CCO` [ethanol] + CCCC[N+]1(C)CCCC1.N#CN=C=[N-], the activity coefficient turned out to be 0.55 ± 0.04 (318.15 K); 0.545 ± 0.04 (323.15 K); 0.538 ± 0.039 (333.15 K); 0.53 ± 0.039 (343.15 K); 0.525 ± 0.039 (353.15 K).
The corresponding values for `CCOC(C)=O` [ethyl acetate] + CCCC[N+]1(C)CCCC1.N#CN=C=[N-] are 2.33 ± 0.16, 2.35 ± 0.16, 2.39 ± 0.16, 2.43 ± 0.17 and 2.47 ± 0.17.
For the molecule `CCc1ccccc1` [ethylbenzene] + CCCC[N+]1(C)CCCC1.N#CN=C=[N-], the activity coefficient (318.15 K) stood at 3.52 ± 0.24; the activity coefficient (323.15 K) was determined as 3.55 ± 0.24; the activity coefficient (333.15 K) worked out at 3.6 ± 0.25; the activity coefficient (343.15 K) was found to be 3.65 ± 0.25; the activity coefficient (353.15 K) stood at 3.69 ± 0.25.
In the same order, the values of `CCC1CCCCC1` [ethylcyclohexane] + CCCC[N+]1(C)CCCC1.N#CN=C=[N-] are 50.1 ± 3.4, 48.4 ± 3.3, 45.1 ± 3.1, 42.2 ± 2.9 and 39.6 ± 2.7.
For the molecule `CCCCCCC` [heptane] + CCCC[N+]1(C)CCCC1.N#CN=C=[N-], the activity coefficient (318.15 K) turned out to be 76 ± 5.2; the activity coefficient (323.15 K) amounted to 73.6 ± 5; the activity coefficient (333.15 K) stood at 68.9 ± 4.7; the activity coefficient (343.15 K) turned out to be 64.7 ± 4.4; the activity coefficient (353.15 K) is 60.9 ± 4.2.
In the same order, the values of `CO` [methanol] + CCCC[N+]1(C)CCCC1.N#CN=C=[N-] are 0.344 ± 0.032, 0.344 ± 0.032, 0.345 ± 0.032, 0.347 ± 0.032 and 0.348 ± 0.032.
For the molecule `COC(C)=O` [methyl ethanoate] + CCCC[N+]1(C)CCCC1.N#CN=C=[N-], the activity coefficient worked out at 1.51 ± 0.1 (318.15 K); 1.53 ± 0.1 (323.15 K); 1.56 ± 0.1 (333.15 K); 1.59 ± 0.11 (343.15 K); 1.63 ± 0.11 (353.15 K).
With `CC1CCCCC1` [methylcyclohexane] + CCCC[N+]1(C)CCCC1.N#CN=C=[N-], the activity coefficient was 32.5 ± 2.2 (318.15 K); 31.7 ± 2.2 (323.15 K); 30 ± 2.1 (333.15 K); 28.4 ± 1.9 (343.15 K); 27.1 ± 1.9 (353.15 K).
Consider `C[N+](=O)[O-]` [nitromethane] + CCCC[N+]1(C)CCCC1.N#CN=C=[N-], for which the activity coefficient reads like this: (318.15 K) 0.592 ± 0.042; (323.15 K) 0.596 ± 0.042; (333.15 K) 0.604 ± 0.042; (343.15 K) 0.609 ± 0.043; (353.15 K) 0.615 ± 0.043.
In the same order, the values of `C=CCCCCCC` [oct-1-ene] + CCCC[N+]1(C)CCCC1.N#CN=C=[N-] are 47.3 ± 3.2, 46.3 ± 3.2, 44.4 ± 3, 42.4 ± 2.9 and 40.8 ± 2.8.
Regarding `CCCCCCCC` [octane] + CCCC[N+]1(C)CCCC1.N#CN=C=[N-], the activity coefficient turned out to be 115 ± 8 (318.15 K); 110 ± 8 (323.15 K); 102 ± 7 (333.15 K); 95.2 ± 6.5 (343.15 K); 89.2 ± 6.1 (353.15 K).
In the same order, the values of `CCCO` [propan-1-ol] + CCCC[N+]1(C)CCCC1.N#CN=C=[N-] are 0.688 ± 0.046, 0.68 ± 0.046, 0.668 ± 0.045, 0.656 ± 0.045 and 0.647 ± 0.044.
With `CC(C)O` [propan-2-ol] + CCCC[N+]1(C)CCCC1.N#CN=C=[N-], the activity coefficient was 0.771 ± 0.05 (318.15 K); 0.761 ± 0.05 (323.15 K); 0.746 ± 0.049 (333.15 K); 0.733 ± 0.049 (343.15 K); 0.724 ± 0.048 (353.15 K).
Take `ClC(Cl)(Cl)Cl` [tetrachloromethane] + CCCC[N+]1(C)CCCC1.N#CN=C=[N-]: the activity coefficient came to 2.04 ± 0.14 (318.15 K); 2.11 ± 0.14 (323.15 K); 2.25 ± 0.15 (333.15 K); 2.38 ± 0.16 (343.15 K); 2.5 ± 0.17 (353.15 K).
For the molecule `C1CCOC1` [tetrahydrofuran] + CCCC[N+]1(C)CCCC1.N#CN=C=[N-], the activity coefficient was 1.36 ± 0.09 (318.15 K); 1.38 ± 0.09 (323.15 K); 1.42 ± 0.09 (333.15 K); 1.46 ± 0.1 (343.15 K); 1.49 ± 0.1 (353.15 K).
In the same order, the values of `c1ccsc1` [thiophene] + CCCC[N+]1(C)CCCC1.N#CN=C=[N-] are 0.851 ± 0.055, 0.868 ± 0.055, 0.901 ± 0.057, 0.931 ± 0.059 and 0.962 ± 0.06.
`Cc1ccccc1` [toluene] + CCCC[N+]1(C)CCCC1.N#CN=C=[N-]: the activity coefficient (318.15 K) came out at 2.17 ± 0.15; the activity coefficient (323.15 K) was determined as 2.2 ± 0.15; the activity coefficient (333.15 K) worked out at 2.26 ± 0.15; the activity coefficient (343.15 K) worked out at 2.3 ± 0.16; the activity coefficient (353.15 K) was 2.35 ± 0.16.
The corresponding values for `ClC(Cl)Cl` [trichloromethane] + CCCC[N+]1(C)CCCC1.N#CN=C=[N-] are 0.391 ± 0.034, 0.411 ± 0.034, 0.453 ± 0.036, 0.496 ± 0.038 and 0.54 ± 0.039.
